Measured values from US20220296535A1, “Antibacterial Dosage Regime Using Cannabinoids” (Botanix Pharmaceuticals Limited, priority 2019, published 2022).
Converted amounts (≈) assume the structure as drawn. Read-outs that look alike come from different tables or passages of the source.

Tests used:
C. granulosum ATCC 25564 = experiment: Anaerobic MIC micro-broth dilution; type: cell-based, Cutibacterium granulosum; details: C. granulosum ATCC 25564, anaerobic chamber, BHI, 48 h
S. aureus ATCC 43300 = experiment: Anaerobic MIC micro-broth dilution; type: cell-based, Staphylococcus aureus; details: S. aureus ATCC 43300, anaerobic chamber, BHI, 48 h
[1] = test system: Staphylococcus aureus ATCC 43300 MRSA; experiment: Forced evolution of resistance, 20 days serial passage and drug-free passages; type: cell-based; details: for MIC: Staphylococcus aureus
Experimental: The collaborator supplied sample as dry material. A stock solution at 10 mg/mL in neat DMSO was prepared.
The tested bacteria was Staphylococcus aureus ATCC 43300 MRSA (ID GP_020:02).
The mid log Staphylococcus aureus (ATCC 43300) growth culture was serially diluted and plated on a solid Tryptic Soy Agar (TSA) plates in duplicates and incubated at 37° C. overnight to determine viable colony count.
Staphylococcus aureus (ATCC 43300) was cultured in CaMHB at 37° C. overnight, then diluted 40-fold and incubated at 37° C. for a further 2-3 h. […] The plate was covered and incubated at 37° C. for 20 h.
Plate well with the highest drug concentration that permitted growth was then diluted. Despite plates were read by eye, reading at OD600 on the Epoch microplate spectrophotometer was used to adjust growth density of each well (it was approximately 1:1000). Then, 100 μL of the bacteria diluted was added to the new MIC plate. The OD600 was used to calculate the dilution of cells to a density of 10^6 CFU/mL. Bacteria were diluted in CaMHB and 100 μL was added to each well of the next replicate passage. The final well volume was 200 μL with a cell density of 5×10^5 CFU/mL. Each replicate (row) was assess as different strain, for this reason the dilution was done for each replicate.
Once prepared, the plate was covered and incubated at 37° C. overnight. Plate reading, compound preparation and bacterial preparation were repeated from Day 2 to Day 20.
Depending on the MIC of the day before, CBD tested concentrations were established.
Depending on the MIC of the day before, CBD and daptomycin tested concentrations were established to ensure at least three concentrations above, and three concentrations below MIC, based on the previous MIC results. Compounds were prepared in Protein LoBind Eppendorf 1.5 mL safelock tubes, diluting 320 μg/mL stock in DMSO in CaMHB to achieve two-fold the desired testing concentrations. The 100 μL of the selected concentration were added to each well (See FIG. 1). […] It was incubated at 37° C. overnight. Next day the same procedure was repeated.
Following 20 days of passaging in the presence of CBD and daptomycin, each replicate was passaged for 4 days in drug-free media to assess the stability of any induced resistance.
Day 20 plate was read and the same bacterial preparation methodology was followed. Same concentrations used in day 20 for CBD were used for the 4 days drug free passages. […] These concentrations were used for the 4 days drug free passages. Column 11 was used as the drug-free passage well, and column 12 as a negative growth control with 200 μL uninoculated media in each well. Diluted bacteria were added to the plate, one replicate per row, 100 μL per well. The final well volume was 200 μL with a cell density of 5×10^5 CFU/mL in columns 1-11, and CBD concentration range from 16-0.03 μg/mL in columns 1-10 (FIG. 2).
Subsequent drug-free passage plates were prepared in the same manner, except each replicate bacteria was passaged from column 11, the drug-free growth control well.
Alongside the test plate, a culture of S. aureus was passaged for 24 days without CBD, to establish a baseline for non-selective mutations in the growth conditions described.
Six wells were used as a positive growth controls, and six as negative growth controls with uninoculated media.
Subsequent passages were inoculated from well H7. The bacterial growth in H7 was resuspended by pipetting, then plates were read for optical density by spectrophotometer (Biotek Epoch) at 600 nm (OD600). The OD600 was used to calculate the dilution of cells to a density of 10^6 CFU/mL. Bacteria were diluted in CaMHB and 50 μL was added to each well of the next passage.

[2] = test system: 132 strains of Staphylococcus aureus (106 MRSA and 26 MSSA strains); experiment: MIC50/MIC90 micro-broth dilution, all strains
[3] = test system: Staphylococcus aureus ATCC 43300; experiment: Broth MIC (Example 1); type: cell-based; details: Staphylococcus aureus
Experimental: The collaborator supplied sample as dry material. A stock solution at 10 mg/mL in neat DMSO (11.2 mg in 1.12 mL of DMSO) was prepared. The highest concentration tested in the assay was 128 μg/mL and 2% DMSO as a final concentration using 1/20 dilution to achieve these concentrations.

[4] = test system: S. aureus MSSA (26 strains); experiment: MIC50/MIC90 micro-broth dilution, MSSA strains; details: Staphylococcus aureus, MSSA
[5] = test system: Staphylococcus aureus ATCC 25923; experiment: Expanded panel MIC micro-broth dilution; type: cell-based; details: CaMHB
Experimental: (§1) The collaborator supplied sample as dry material. Angela Kavanagh prepared a stock solution at 10 mg/mL in neat DMSO. The highest concentration tested in the assay was 64 μg/mL for bacteria and 128 μg/mL for fungi. 2% DMSO was the final concentration using 1/20 dilution to achieve these concentrations.
(§2) The compound was serially diluted in Cation-adjusted Mueller Hinton Broth (CaMHB; BD, Cat. No. 212322) two-fold across the wells of polystyrene (PS) 96-well plates (Corning; Cat. No. 3370), plated in duplicate. All plates had flat bottom wells and were covered with low-evaporation lids.
(§3) Bacteria were cultured in CaMHB at 37° C. overnight, then diluted 40-fold and incubated at 37° C. for a further 2-3 h. The resultant mid-log phase cultures were diluted in CaMHB and added to each well of the compound-containing 96-well plates to give a final cell density of 5×10^5 CFU/mL, and a final compound concentration range of 0.03-64 μg/mL. The plates were covered and incubated at 37° C. for 20 h.
(§4) Inhibition of bacterial growth was determined visually, where the MIC was recorded as the lowest compound concentration with no visible growth.

[6] = test system: Staphylococcus aureus NARSA, VRS1; experiment: Expanded panel MIC micro-broth dilution; type: cell-based; details: CaMHB
Experimental: as §1, §2, §3, §4

[7] = test system: Staphylococcus warneri Clinical isolate; experiment: Expanded panel MIC micro-broth dilution; type: cell-based; details: CaMHB
Experimental: as §1, §2, §3, §4

[8] = test system: Staphylococcus capitis ATCC 27840; experiment: Expanded panel MIC micro-broth dilution; type: cell-based; details: CaMHB
Experimental: as §1, §2, §3, §4

Kocuria rosea ATCC 31251 = experiment: Expanded panel MIC micro-broth dilution; type: cell-based; details: CaMHB
Experimental: as §1, §2, §3, §4

[9] = test system: Staphylococcus aureus ATCC 700699, NRS 1; experiment: Expanded panel MIC micro-broth dilution; type: cell-based; details: CaMHB, read-out: Cannabidiol MIC (Batch 1)
Experimental: as §1, §2, §3, §4

[10] = test system: Staphylococcus aureus ATCC 43300; experiment: Expanded panel MIC micro-broth dilution; type: cell-based; details: ATCC43300, CaMHB, read-out: Cannabidiol MIC (Batch 1)
Experimental: as §1, §2, §3, §4

[11] = test system: Bacillus cereus ATCC 11778; experiment: Expanded panel MIC micro-broth dilution; type: cell-based; details: CaMHB
Experimental: as §1, §2, §3, §4

[12] = test system: Streptococcus pyogenes ATCC 12344; experiment: Expanded panel MIC micro-broth dilution; type: cell-based; details: ATCC12344, CaMHB, read-out: Cannabidiol MIC (Batch 1)
Experimental: as §1, §2, §3, §4

[13] = test system: Bacillus subtilis ATCC 6633; experiment: Expanded panel MIC micro-broth dilution; type: cell-based; details: CaMHB
Experimental: as §1, §2, §3, §4

[14] = test system: Staphylococcus aureus ATCC 29213; experiment: Expanded panel MIC micro-broth dilution; type: cell-based; details: CaMHB
Experimental: as §1, §2, §3, §4

[15] = test system: Staphylococcus aureus ATCC 33591; experiment: Expanded panel MIC micro-broth dilution; type: cell-based; details: CaMHB
Experimental: as §1, §2, §3, §4

[16] = test system: S. aureus MRSA (106 strains); experiment: MIC50/MIC90 micro-broth dilution, MRSA strains; type: cell-based, Staphylococcus aureus; details: for Staphylococcus aureus MRSA MIC distribution, number of strains: Table 19
[17] = listed as Cannabidiol (Batch 2)

Structure (SMILES): C=C(C)C1CCC(C)=CC1c1c(O)cc(CCCCC)cc1O (stereo not shown) [Cannabidiol, 2-[3-methyl-6-(1-methylethenyl)-2-cyclohexen-1-yl]-5-pentyl-1,3-benzenediol]
- MIC (C. granulosum ATCC 25564; [17]): 4/2
- MIC (C. granulosum ATCC 25564; listed as Cannabidiol (CBD)): active
- MIC (S. aureus ATCC 43300; [17]): 2/1
- MIC (S. aureus ATCC 43300; listed as Cannabidiol (CBD)): active
- MIC ([1]; 216 h, read-out: measured MIC on Day 9): 1 µg/mL (≈ 3.18 µM)
- MIC ([1]; 312 h, read-out: MIC of replicate 1 at day 13): > 7 µg/mL
- MIC ([1]; 432 h, read-out: MIC of replicate 1 by day 18): > 128 µg/mL
- MIC ([1]; 480 h, read-out: MIC through the 20 days of assay): 2 to 4 µg/mL (≈ 6.36 to 12.7 µM)
- MIC ([1]; read-out: MIC of replicates 2 and 8 on Days 20 and 21): 6 to 16 µg/mL
- MIC of replicate 1 before the increase ([1]; replicate 1): 3.5 µg/mL
- Staphylococcus aureus spp. MIC distribution, number of strains ([2]; MIC 0.015 μg/mL): 0
- Staphylococcus aureus spp. MIC distribution, number of strains ([2]; MIC 0.03 μg/mL): 0
- Staphylococcus aureus spp. MIC distribution, number of strains ([2]; MIC 0.06 μg/mL): 0
- Staphylococcus aureus spp. MIC distribution, number of strains ([2]; MIC 0.5 μg/mL): 0
- Staphylococcus aureus spp. MIC distribution, number of strains ([2]; MIC 1 μg/mL): 6
- Staphylococcus aureus spp. MIC distribution, number of strains ([2]; MIC 2 μg/mL): 106
- Staphylococcus aureus spp. MIC distribution, number of strains ([2]; MIC 4 μg/mL): 18
- Staphylococcus aureus spp. MIC distribution, number of strains ([2]; MIC 8 μg/mL): 1
- Staphylococcus aureus spp. MIC distribution, number of strains ([2]; MIC 32 μg/mL): 0
- MIC range ([2]; S. aureus spp. ALL): 0.25 to 8 µg/mL
- MIC50 ([2]; Staphylococcus aureus): 2 µg/mL (≈ 6.36 µM)
- MIC90 ([2]; Staphylococcus aureus): 4 µg/mL (≈ 12.7 µM)
- MIC ([2]; Staphylococcus aureus, MRSA|MSSA, read-out: MIC across the 132 strains tested): 2 to 4 µg/mL (≈ 6.36 to 12.7 µM)
- MIC ([3]; ATCC43300, CAMHB, read-out: Broth MIC): 1 µg/mL (≈ 3.18 µM)
- MIC ([3]; ATCC43300, TSB + 5% Glucose, read-out: Broth MIC): 0.5 µg/mL
- MIC ([3]; ATCC 43300 / MRSA, same strain of MRSA, read-out: standard vegetative cell MIC): 0.5 to 1 µg/mL (≈ 1.59 to 3.18 µM)
- MIC50 [4]: 2 µg/mL (≈ 6.36 µM)
- MIC90 [4]: 2 µg/mL (≈ 6.36 µM)
- Cannabidiol MIC (Batch 1) ([5]; Staphylococcus aureus ATCC 25923): 2 µg/mL
- MIC ([5]; Staphylococcus aureus, ATCC25923, Staphylococcus aureus ATCC 25923, read-out: Cannabidiol MIC (Batch 1)): 1 µg/mL (≈ 3.18 µM)
- Cannabidiol MIC (Batch 1) [6]: 2 µg/mL
- MIC ([6]; Staphylococcus aureus, read-out: Cannabidiol MIC (Batch 1)): 1 µg/mL (≈ 3.18 µM)
- Cannabidiol MIC (Batch 1) [7]: 4 µg/mL
- MIC ([7]; Staphylococcus warneri, read-out: Cannabidiol MIC (Batch 1)): 2 µg/mL (≈ 6.36 µM)
- Cannabidiol MIC (Batch 1) ([8]; Staphylococcus capitis ATCC 27840): 2 µg/mL
- MIC ([8]; Staphylococcus capitis, ATCC27840, Staphylococcus capitis ATCC 27840, read-out: Cannabidiol MIC (Batch 1)): 1 µg/mL (≈ 3.18 µM)
- Cannabidiol MIC (Batch 1) (Kocuria rosea ATCC 31251; Kocuria rosea ATCC 31251): 2 µg/mL
- MIC (Kocuria rosea ATCC 31251; Kocuria rosea, ATCC31251, Kocuria rosea ATCC 31251, read-out: Cannabidiol MIC (Batch 1)): 1 µg/mL (≈ 3.18 µM)
- MIC [9]: 4 µg/mL (≈ 12.7 µM)
- MIC [10]: 1 µg/mL (≈ 3.18 µM)
- Cannabidiol MIC (Batch 1) ([11]; Bacillus cereus ATCC 11778): 2 µg/mL
- MIC ([11]; Bacillus cereus, ATCC11778, Bacillus cereus ATCC 11778, read-out: Cannabidiol MIC (Batch 1)): 1 µg/mL (≈ 3.18 µM)
- MIC [12]: 1 µg/mL (≈ 3.18 µM)
- Cannabidiol MIC (Batch 1) ([13]; Bacillus subtilis ATCC 6633): 2 µg/mL
- MIC ([13]; Bacillus subtilis, ATCC6633, Bacillus subtilis ATCC 6633, read-out: Cannabidiol MIC (Batch 1)): 1 µg/mL (≈ 3.18 µM)
- Cannabidiol MIC (Batch 1) ([14]; Staphylococcus aureus ATCC 29213): 2 µg/mL
- MIC ([14]; Staphylococcus aureus, ATCC29213, Staphylococcus aureus ATCC 29213, read-out: Cannabidiol MIC (Batch 1)): 1 µg/mL (≈ 3.18 µM)
- Cannabidiol MIC (Batch 1) ([15]; Staphylococcus aureus ATCC 33591): 2 µg/mL
- MIC ([15]; Staphylococcus aureus, ATCC33591, Staphylococcus aureus ATCC 33591, read-out: Cannabidiol MIC (Batch 1)): 1 µg/mL (≈ 3.18 µM)
- MIC50 ([16]; Staphylococcus aureus, S. aureus MRSA, read-out: MIC 50): 2 µg/mL (≈ 6.36 µM)
- MIC90 ([16]; Staphylococcus aureus, S. aureus MRSA, read-out: MIC 90): 4 µg/mL (≈ 12.7 µM)
- Staphylococcus aureus MRSA MIC distribution, number of strains ([16]; MIC 0.015): 0
- Staphylococcus aureus MRSA MIC distribution, number of strains ([16]; MIC 0.03): 0
- Staphylococcus aureus MRSA MIC distribution, number of strains ([16]; MIC 0.06): 0
- Staphylococcus aureus MRSA MIC distribution, number of strains ([16]; MIC 0.5): 0
- Staphylococcus aureus MRSA MIC distribution, number of strains ([16]; MIC 1): 4
- Staphylococcus aureus MRSA MIC distribution, number of strains ([16]; MIC 2): 82
- Staphylococcus aureus MRSA MIC distribution, number of strains ([16]; MIC 4): 18
- Staphylococcus aureus MRSA MIC distribution, number of strains ([16]; MIC 8): 1
- Staphylococcus aureus MRSA MIC distribution, number of strains ([16]; MIC 16): 0
- Staphylococcus aureus MRSA MIC distribution, number of strains ([16]; MIC 32): 0
